Laboratory results as given in ChEMBL document CHEMBL6078637, “Cyclic Diguanylate G-Quadruplex Inducer-Quorum Sensing Inhibitor Hybrids as Bifunctional Anti-biofilm and Anti-virulence Agents Against Pseudomonas aeruginosa” (J Med Chem, 2024).
The source made the active and inactive calls. The calls are words filed in the database; no cut-off is given here.

Legend:
[1] = Inhibition of quorum sensing system in Pseudomonas aeruginosa PAO1 harboring mini-ctx-lasB-lacZ at 10 uM measured after 16 hrs by ONPG test relative to control
[2] = system: Pseudomonas aeruginosa; assay: Antibacterial activity against Pseudomonas aeruginosa PAO1 incubated for 24 hrs by absorbance based assay; type: functional
[3] = Toxicity in Caenorhabditis elegans infected with Pseudomonas aeruginosa PAO1 assessed as reduction in nematode mortality rate at 10 uM incubated for 48 hrs in presence of TOB; design: scale not given: the % may be the effect or the level left
[4] = system: Pseudomonas aeruginosa; assay: Inhibition of beta-galactosidase in Pseudomonas aeruginosa PAO1 harboring mini-ctx-lacZ at 10 uM incubated for 6 hrs by ONPG test relative to control
[5] = system: Pseudomonas aeruginosa; assay: Synergistic inhibition of bacterial virulence of Pseudomonas aeruginosa PAO1 infected in Caenorhabditis elegans upto 10 uM incubated for 36 hrs in presence of tetracycline; type: functional, organism-based
[6] = system: Pseudomonas aeruginosa; assay: Inhibition of twitching motility of Pseudomonas aeruginosa PAO1 incubated overnight by crystal voilet staining based analysis; type: functional, organism-based; conditions: dose <= 10.0 µM
[7] = Toxicity in Caenorhabditis elegans infected with hyper-biofilm phenotype Pseudomonas aeruginosa PAO1 harboring wspF mutant assessed as nematode death at 10 uM incubated for 48 hrs in presence of TOB
[8] = system: Pseudomonas aeruginosa; assay: Antivirulence activity against Pseudomonas aeruginosa PAO1 assessed as reduction in elastase level at 10 uM incubated for 24 hrs by elastin-Congo red staining based analysis relative to control; type: functional; design: scale not given: the % may be the effect or the level left
[9] = Toxicity in Caenorhabditis elegans infected with Pseudomonas aeruginosa PAO1 assessed as nematode survival at 10 uM incubated for 48 hrs in presence of tetracycline
[10] = system: Pseudomonas aeruginosa; assay: Antivirulence activity against Pseudomonas aeruginosa PAO1 assessed as reduction in hemolysin level at 10 uM preincubated for 24 hrs followed by addition of erythrocytes measured after 30 mins by absorbance based analysis relative to control; type: functional; design: scale not given: the % may be the effect or the level left
[11] = Hemolytic activity in rabbit erythrocytes assessed as damage in cell membrane integrity at 100 uM incubated for 4 hrs by absorbance based assay; type: toxicity, Oryctolagus cuniculus; conditions: erythrocyte
[12] = system: Pseudomonas aeruginosa; assay: Inhibition of swimming motility of Pseudomonas aeruginosa PAO1 incubated overnight; type: functional, organism-based; conditions: dose <= 10.0 µM
[13] = system: Pseudomonas aeruginosa; assay: Inhibition of beta-galactosidase in Pseudomonas aeruginosa PAO1 harboring mini-ctx-rhlA-lacZ at 10 uM incubated for 6 hrs by ONPG test relative to control
[14] = Toxicity in Caenorhabditis elegans infected with hyper-biofilm phenotype Pseudomonas aeruginosa PAO1 harboring wspF mutant assessed as nematode death at 10 uM incubated for 48 hrs in presence of tetracycline
[15] = system: Pseudomonas aeruginosa; assay: Antivirulence activity against Pseudomonas aeruginosa PAO1 assessed as reduction in rhamnolipid level at 10 uM incubated for 24 hrs by orcinol based analysis; type: functional, organism-based
[16] = Toxicity in Caenorhabditis elegans infected with Pseudomonas aeruginosa PAO1 assessed as nematode survival at 10 uM incubated for 48 hrs
[17] = system: Pseudomonas aeruginosa; assay: Inhibition of beta-galactosidase in Pseudomonas aeruginosa PAO1 harboring mini-ctx-pqsA-lacZ incubated for 6 hrs by ONPG test; conditions: dose <= 10.0 µM
[18] = system: Pseudomonas aeruginosa; assay: Inhibition of beta-galactosidase in Pseudomonas aeruginosa PAO1 harboring mini-ctx-lasB-lacZ at 10 uM incubated for 6 hrs by ONPG test relative to control
[19] = system: Pseudomonas aeruginosa; assay: Antivirulence activity against Pseudomonas aeruginosa PAO1 assessed as reduction in elastase level incubated for 24 hrs by elastin-Congo red staining based analysis; type: functional, organism-based; conditions: dose <= 10.0 µM
[20] = system: Pseudomonas aeruginosa; assay: Antivirulence activity against Pseudomonas aeruginosa PAO1 assessed as reduction in pyocyanin level incubated for 24 hrs by absorbance based assay; type: functional, organism-based; conditions: dose <= 10.0 µM
[21] = system: Pseudomonas aeruginosa; assay: Antibiofilm activity against Pseudomonas aeruginosa PAO1 harboring wspF mutant assessed as inhibition rate at 1.25 uM incubated for 24 hrs by absorbance based assay relative to control; type: functional
[22] = system: Pseudomonas aeruginosa; assay: Synergistic antibacterial activity against Pseudomonas aeruginosa PAO1 assessed as bacterial growth inhibition at 20 uM incubated for 24 hrs in presence of tetracycline by CFU counting method; type: functional, organism-based
[23] = system: Pseudomonas aeruginosa; assay: Inhibition of beta-galactosidase in Pseudomonas aeruginosa PAO1 harboring mini-ctx-lasB-lacZ incubated for 6 hrs by ONPG test; conditions: dose <= 10.0 µM
[24] = system: Pseudomonas aeruginosa; assay: Synergistic inhibition of bacterial virulence of Pseudomonas aeruginosa PAO1 infected in Caenorhabditis elegans upto 10 uM incubated for 36 hrs in presence of TOB; type: functional, organism-based
[25] = Toxicity in Caenorhabditis elegans assessed as nematode survival upto 100 uM incubated for 96 hrs
[26] = system: Pseudomonas aeruginosa; assay: Inhibition of swarming motility of Pseudomonas aeruginosa PAO1 at 10 uM incubated overnight; type: functional, organism-based
[27] = system: Pseudomonas aeruginosa; assay: Inhibition of twitching motility of Pseudomonas aeruginosa PAO1 at 10 uM incubated overnight by crystal voilet staining based analysis; type: functional, organism-based
[28] = system: Pseudomonas aeruginosa; assay: Inhibition of swarming motility of Pseudomonas aeruginosa PAO1 incubated overnight; type: functional, organism-based; conditions: dose <= 10.0 µM
[29] = system: Pseudomonas aeruginosa; assay: Antivirulence activity against Pseudomonas aeruginosa PAO1 assessed as reduction in rhamnolipid level incubated for 24 hrs by orcinol based analysis; type: functional, organism-based; conditions: dose <= 10.0 µM
[30] = system: Vero; assay: Cytotoxicity against African green monkey Vero cells at 12.5 uM incubated for 24 hrs by MTT assay; type: toxicity, cell-based; conditions: chlorocebus sabaeus
[31] = system: Pseudomonas aeruginosa; assay: Synergistic inhibition of bacterial virulence of hyper-biofilm phenotype Pseudomonas aeruginosa PAO1 harboring wspF mutant upto 10 uM incubated for 36 hrs in presence of TOB; type: functional, organism-based
[32] = system: Pseudomonas aeruginosa; assay: Inhibition of beta-galactosidase in Pseudomonas aeruginosa PAO1 harboring mini-ctx-pqsA-lacZ at 10 uM incubated for 6 hrs by ONPG test relative to control
[33] = system: Pseudomonas aeruginosa; assay: Antibiofilm activity against Pseudomonas aeruginosa PAO1 harboring wspF mutant assessed as inhibition rate at 10 uM incubated for 24 hrs by absorbance based assay relative to control; type: functional
[34] = system: Pseudomonas aeruginosa; assay: Inhibition of swimming motility of Pseudomonas aeruginosa PAO1 at 10 uM incubated overnight relative to control; type: functional
[35] = system: Pseudomonas aeruginosa; assay: Antibiofilm activity against Pseudomonas aeruginosa PAO1 harboring wspF mutant incubated for 24 hrs by absorbance based assay; type: functional, organism-based
[36] = system: Pseudomonas aeruginosa; assay: Synergistic inhibition of bacterial virulence of hyper-biofilm phenotype Pseudomonas aeruginosa PAO1 harboring wspF mutant upto 10 uM incubated for 36 hrs in presence of tetracycline; type: functional, organism-based
[37] = system: DNA; assay: Binding affinity to pBR322 DNA (unknown origin) assessed as DNA embedding toxicity at 50 uM preincubated for 10 mins followed by Topo I addition measured after 1 hr by TO dye based PAGE analysis; type: nucleic-acid assay; conditions: time 70.0 min
[38] = system: DNA; assay: Binding affinity to pBR322 DNA (unknown origin) assessed as DNA migration at 50 uM preincubated for 10 mins followed by Topo I addition measured after 1 hr by TO dye based PAGE analysis; type: nucleic-acid assay; conditions: time 70.0 min

## C[n+]1c(/C=C/c2coc3ccccc3c2=O)ccc2ccccc21
[1]
  inhibition: 1.21%
[2]
  MIC: > 128 µM

## C[n+]1c(/C=C/c2c[nH]c3ccc(F)cc23)ccc2ccccc21.[I-]
[3]
  Activity: ~ 50%
[4]
  inhibition: 8.03%
[5]
  Activity: Active
[6]
  inhibition: Dose-dependent-effect
[7]
  Activity: Non-toxic
[8]
  Activity: 48.51%
[9]
  Survival: 86.3%
[10]
  Activity: 51.3%
[11]
  Activity: Non-toxic
[12]
  inhibition: Dose-dependent-effect
[13]
  inhibition: 10%
[14]
  Activity: Non-toxic
[15]
  Activity: Active; Exhibited Relatively Modest Activity
[16]
  Activity: Toxic
[17]
  inhibition: Dose-dependent-effect
[1]
  inhibition: 40.3%
[18]
  inhibition: 30%
[19]
  Activity: Dose-dependent-effect
[20]
  Activity: Dose-dependent-effect
[21]
  inhibition at 1.25 µM: ~21%
[22]
  Activity: Active
[2]
  MIC: > 128 µM
[23]
  inhibition: Dose-dependent-effect
[24]
  Activity: Active
[25]
  Activity: Non-toxic
[26]
  inhibition: Active; Inhibitory Effect Was Comparable To Qs Deficient Pao1 Double Mutant Lasi/Rhli
[27]
  inhibition: Active; Exhibited Only A Modest Impact
[28]
  inhibition: Dose-dependent-effect
[29]
  Activity: Dose-dependent-effect
[30]
  Activity: Non-toxic
[31]
  Activity: Active
[32]
  inhibition: 30%
[33]
  inhibition at 10 µM: ~40%
[34]
  inhibition at 10 µM: 22.4%
[35]
  inhibition: Dose-dependent-effect
[35]; PAO1, 24 h
  IC50: 23.4 µM
[36]
  Activity: Active
[37]
  Activity: Not toxic
[38]
  Activity: Not toxic

## Cc1cc(=O)c(O)c(/C=C/c2sc3ccccc3[n+]2C)o1
[1]
  inhibition: 7.78%
[2]
  MIC: > 128 µM

## C[n+]1c(/C=C/c2cscn2)sc2ccccc21
[1]
  inhibition: 3.65%
[2]
  MIC: > 128 µM

## C[n+]1c(/C=C/c2ccc3ccc(=O)oc3c2)ccc2ccccc21
[1]
  inhibition: 2.74%
[2]
  MIC: > 128 µM

## Cc1ccc2[nH]cc(/C=C/c3ccc4ccccc4[n+]3C)c2c1
[1]
  inhibition: 17%
[21]
  inhibition at 1.25 µM: ~21%
[2]
  MIC: > 128 µM

## C[n+]1c(/C=C/c2c[nH]c3ccccc23)sc2ccccc21
[1]
  inhibition: 20.9%
[21]
  inhibition at 1.25 µM: ~21%
[2]
  MIC: > 128 µM

## C[n+]1c(/C=C/c2ccc3ccc(=O)oc3c2)sc2ccccc21
[1]
  inhibition: 2.42%
[2]
  MIC: > 128 µM

## C[n+]1c(/C=C/c2ccc3nc[nH]c3c2)sc2ccccc21
[1]
  inhibition: 3.2%
[2]
  MIC: > 128 µM

## C[n+]1c(/C=C/c2coc3ccccc3c2=O)sc2ccccc21
[1]
  inhibition: 7.3%
[2]
  MIC: > 128 µM

## C[n+]1c(/C=C/c2cccc3c2CCO3)ccc2ccccc21
[1]
  inhibition: 9.4%
[2]
  MIC: > 128 µM

## CC[C@H]1OC(=O)[C@H](C)[C@@H](O[C@H]2C[C@@](C)(OC)[C@@H](O)[C@H](C)O2)[C@H](C)[C@@H](O[C@@H]2O[C@H](C)C[C@H](N(C)C)[C@H]2O)[C@](C)(O)C[C@@H](C)CN(C)[C@H](C)[C@@H](O)[C@]1(C)O [AZITHROMYCIN]
[33]
  inhibition at 10 µM: 43.9%

## C[n+]1c(/C=C/c2cc3ccccc3[nH]2)ccc2ccccc21
[1]
  inhibition: 1.42%
[2]
  MIC: > 128 µM

## C[n+]1c(/C=C/c2c[nH]c3ccc(O)cc23)ccc2ccccc21
[1]
  inhibition: 7.32%
[2]
  MIC: > 128 µM

## COc1ccc2[nH]cc(/C=C/c3ccc4ccccc4[n+]3C)c2c1
[1]
  inhibition: 16.6%
[21]
  inhibition at 1.25 µM: ~21%
[2]
  MIC: > 128 µM

## C[n+]1c(/C=C/c2c[nH]c3ccc(Br)cc23)ccc2ccccc21
[1]
  inhibition: 2.52%
[2]
  MIC: > 128 µM

## COc1ccc2c(/C=C/c3ccc4ccccc4[n+]3C)c[nH]c2c1
[1]
  inhibition: 17.9%
[21]
  inhibition at 1.25 µM: ~21%
[2]
  MIC: > 128 µM

## Cc1ccc2c(/C=C/c3ccc4ccccc4[n+]3C)c[nH]c2c1
[1]
  inhibition: 16.2%
[21]
  inhibition at 1.25 µM: ~21%
[2]
  MIC: > 128 µM

## C[n+]1c(/C=C/c2c[nH]c3cc(Cl)ccc23)ccc2ccccc21
[1]
  inhibition: 3.02%
[2]
  MIC: > 128 µM

## C[n+]1c(/C=C/c2cc3ccccc3[nH]2)sc2ccccc21
[1]
  inhibition: 2.23%
[2]
  MIC: > 128 µM

## C[n+]1c(/C=C/c2cc(=O)c(O)co2)ccc2ccccc21
[1]
  inhibition: 0.45%
[2]
  MIC: > 128 µM

## C[n+]1c(/C=C/c2cccc3ocnc23)ccc2ccccc21
[1]
  inhibition: 2.91%
[2]
  MIC: > 128 µM

## C[n+]1c(/C=C/c2ccc3nc[nH]c3c2)ccc2ccccc21
[1]
  inhibition: 1.69%
[2]
  MIC: > 128 µM

## C[n+]1c(/C=C/c2ccc3ocnc3c2)sc2ccccc21
[1]
  inhibition: 1.14%
[2]
  MIC: > 128 µM

## C[n+]1c(/C=C/c2c[nH]c3ccc(Cl)cc23)ccc2ccccc21
[1]
  inhibition: 4.53%
[2]
  MIC: > 128 µM

## C[n+]1c(/C=C/c2cscn2)ccc2ccccc21
[1]
  inhibition: 4.55%
[2]
  MIC: > 128 µM

## Cc1cc(=O)c(O)c(/C=C/c2ccc3ccccc3[n+]2C)o1
[1]
  inhibition: 4.86%
[2]
  MIC: > 128 µM

## C[n+]1c(/C=C/c2ccc3c(c2)CCO3)sc2ccccc21
[1]
  inhibition: 3.6%
[2]
  MIC: > 128 µM

## C[n+]1c(/C=C/c2c[nH]c3cc(Br)ccc23)ccc2ccccc21
[1]
  inhibition: 0.5%
[21]
  inhibition at 1.25 µM: ~21%
[2]
  MIC: > 128 µM

## C[n+]1c(/C=C/c2c[nH]c3ccc([N+](=O)[O-])cc23)ccc2ccccc21
[1]
  inhibition: 4.62%
[2]
  MIC: > 128 µM

## C[n+]1c(/C=C/c2cc(=O)c(O)co2)sc2ccccc21
[1]
  inhibition: 4.1%
[2]
  MIC: > 128 µM

## C[n+]1c(/C=C/c2c[nH]c3cc(F)ccc23)ccc2ccccc21
[1]
  inhibition: 9.14%
[21]
  inhibition at 1.25 µM: ~21%
[2]
  MIC: > 128 µM
